≈ marks a conversion by molar mass, not a printed value. Read-outs that look alike come from different tables or passages of the source.
What was measured:
[1] = system: E. faecalis GC 2265; assay: MIC, broth microdilution; settings: Enterococcus faecalis
[2] = system: E. faecium GC 4556; assay: MIC, broth microdilution; settings: Enterococcus faecium
[3] = system: P. aeruginosa GC 2214; assay: MIC, broth microdilution; settings: Pseudomonas aeruginosa
[4] = system: E. coli; assay: Range of MIC for E. coli strains; settings: Escherichia coli
[5] = system: E. coli GC 2234; assay: MIC, broth microdilution; settings: Escherichia coli
[6] = system: E. coli GC 2232; assay: MIC, broth microdilution; settings: Escherichia coli
[7] = system: S. aureus GC 6335; assay: MIC, broth microdilution; settings: Staphylococcus aureus
[8] = system: E. coli GC 2271; assay: MIC, broth microdilution; settings: Escherichia coli
[9] = system: E. faecium GC 2243; assay: MIC, broth microdilution; settings: Enterococcus faecium
[10] = system: S. pyogenes GC 4563; assay: MIC, broth microdilution; settings: Streptococcus pyogenes
[11] = system: E. coli GC 2231; assay: MIC, broth microdilution; settings: Escherichia coli
[12] = system: E. coli GC 2233; assay: MIC, broth microdilution; settings: Escherichia coli
[13] = system: S. aureus GC 6466; assay: MIC, broth microdilution; settings: Staphylococcus aureus
[14] = system: S. aureus GC 6469; assay: MIC, broth microdilution; settings: Staphylococcus aureus
[15] = system: E. coli GC 2203; assay: MIC, broth microdilution; settings: Escherichia coli
[16] = system: Staph.; assay: Range of MIC for Staph. strains, including MRSA; settings: Staphylococcus aureus
[17] = system: E. coli GC 3226; assay: MIC, broth microdilution; settings: Escherichia coli
[18] = system: E. coli GC 2236; assay: MIC, broth microdilution; settings: Escherichia coli
[19] = system: E. coli GC 2270; assay: MIC, broth microdilution; settings: Escherichia coli
[20] = system: S. aureus GC 2216; assay: MIC, broth microdilution; settings: Staphylococcus aureus

MIC ([1]; GC2265, read-out: MINIMAL INHIBITORY CONCENTRATION MIC, pre-incubated in Human Serum): 1 µg/mL (≈ 1.37 µM)
MIC ([1]; GC2265, read-out: MINIMAL INHIBITORY CONCENTRATION MIC, pre-incubated in Mouse Serum): 0.5 µg/mL (≈ 0.685 µM)
MIC ([1]; GC2265, read-out: MINIMAL INHIBITORY CONCENTRATION MIC, pre-incubated in Water): 4 µg/mL (≈ 5.48 µM)
MIC ([2]; GC4556, read-out: MINIMAL INHIBITORY CONCENTRATION MIC, pre-incubated in Human Serum): 1 µg/mL (≈ 1.37 µM)
MIC ([2]; GC4556, read-out: MINIMAL INHIBITORY CONCENTRATION MIC, pre-incubated in Mouse Serum): 1 µg/mL (≈ 1.37 µM)
MIC ([2]; GC4556, read-out: MINIMAL INHIBITORY CONCENTRATION MIC, pre-incubated in Water): 2 µg/mL (≈ 2.74 µM)
MIC ([3]; GC2214, read-out: MINIMAL INHIBITORY CONCENTRATION MIC, pre-incubated in Human Serum): > 64 µg/mL
MIC ([3]; GC2214, read-out: MINIMAL INHIBITORY CONCENTRATION MIC, pre-incubated in Mouse Serum): 16 µg/mL (≈ 21.9 µM)
MIC ([3]; GC2214, read-out: MINIMAL INHIBITORY CONCENTRATION MIC, pre-incubated in Water): > 64 µg/mL
MIC ([4]; 20 h, read-out: Range of MIC, E. coli (Mouse Serum)): 0.5 to 2 µg/mL (≈ 0.685 to 2.74 µM)
MIC ([4]; read-out: Minimum inhibitory concentration (MIC), E. coli (Human Serum)): 4 to 16 µg/mL (≈ 5.48 to 21.9 µM)
MIC ([5]; GC2234, read-out: MINIMAL INHIBITORY CONCENTRATION MIC, pre-incubated in Human Serum): 4 µg/mL (≈ 5.48 µM)
MIC ([5]; GC2234, read-out: MINIMAL INHIBITORY CONCENTRATION MIC, pre-incubated in Mouse Serum): 0.5 µg/mL (≈ 0.685 µM)
MIC ([5]; GC2234, read-out: MINIMAL INHIBITORY CONCENTRATION MIC, pre-incubated in Water): 16 µg/mL (≈ 21.9 µM)
MIC ([6]; GC2232, read-out: MINIMAL INHIBITORY CONCENTRATION MIC, pre-incubated in Human Serum): 4 µg/mL (≈ 5.48 µM)
MIC ([6]; GC2232, read-out: MINIMAL INHIBITORY CONCENTRATION MIC, pre-incubated in Mouse Serum): 1 µg/mL (≈ 1.37 µM)
MIC ([6]; GC2232, read-out: MINIMAL INHIBITORY CONCENTRATION MIC, pre-incubated in Water): 16 µg/mL (≈ 21.9 µM)
MIC ([7]; GC6335, read-out: MINIMAL INHIBITORY CONCENTRATION MIC, pre-incubated in Human Serum): 0.5 µg/mL (≈ 0.685 µM)
MIC ([7]; GC6335, read-out: MINIMAL INHIBITORY CONCENTRATION MIC, pre-incubated in Mouse Serum): 1 µg/mL (≈ 1.37 µM)
MIC ([7]; GC6335, read-out: MINIMAL INHIBITORY CONCENTRATION MIC, pre-incubated in Water): 2 µg/mL (≈ 2.74 µM)
MIC ([8]; GC2271, read-out: MINIMAL INHIBITORY CONCENTRATION MIC, pre-incubated in Human Serum): 4 µg/mL (≈ 5.48 µM)
MIC ([8]; GC2271, read-out: MINIMAL INHIBITORY CONCENTRATION MIC, pre-incubated in Mouse Serum): 0.5 µg/mL (≈ 0.685 µM)
MIC ([8]; GC2271, read-out: MINIMAL INHIBITORY CONCENTRATION MIC, pre-incubated in Water): 16 µg/mL (≈ 21.9 µM)
MIC ([9]; GC2243, read-out: MINIMAL INHIBITORY CONCENTRATION MIC, pre-incubated in Human Serum): 1 µg/mL (≈ 1.37 µM)
MIC ([9]; GC2243, read-out: MINIMAL INHIBITORY CONCENTRATION MIC, pre-incubated in Mouse Serum): 0.5 µg/mL (≈ 0.685 µM)
MIC ([9]; GC2243, read-out: MINIMAL INHIBITORY CONCENTRATION MIC, pre-incubated in Water): 2 µg/mL (≈ 2.74 µM)
MIC ([10]; GC4563, read-out: MINIMAL INHIBITORY CONCENTRATION MIC, pre-incubated in Human Serum): 0.25 µg/mL (≈ 0.343 µM)
MIC ([10]; GC4563, read-out: MINIMAL INHIBITORY CONCENTRATION MIC, pre-incubated in Mouse Serum): 0.25 µg/mL (≈ 0.343 µM)
MIC ([10]; GC4563, read-out: MINIMAL INHIBITORY CONCENTRATION MIC, pre-incubated in Water): 0.5 µg/mL (≈ 0.685 µM)
MIC ([11]; GC2231, read-out: MINIMAL INHIBITORY CONCENTRATION MIC, pre-incubated in Human Serum): 4 µg/mL (≈ 5.48 µM)
MIC ([11]; GC2231, read-out: MINIMAL INHIBITORY CONCENTRATION MIC, pre-incubated in Mouse Serum): 1 µg/mL (≈ 1.37 µM)
MIC ([11]; GC2231, read-out: MINIMAL INHIBITORY CONCENTRATION MIC, pre-incubated in Water): 32 µg/mL (≈ 43.8 µM)
MIC ([12]; GC2233, read-out: MINIMAL INHIBITORY CONCENTRATION MIC, pre-incubated in Human Serum): 4 µg/mL (≈ 5.48 µM)
MIC ([12]; GC2233, read-out: MINIMAL INHIBITORY CONCENTRATION MIC, pre-incubated in Mouse Serum): 1 µg/mL (≈ 1.37 µM)
MIC ([12]; GC2233, read-out: MINIMAL INHIBITORY CONCENTRATION MIC, pre-incubated in Water): 16 µg/mL (≈ 21.9 µM)
MIC ([13]; GC6466, read-out: MINIMAL INHIBITORY CONCENTRATION MIC, pre-incubated in Human Serum): 0.25 µg/mL (≈ 0.343 µM)
MIC ([13]; GC6466, read-out: MINIMAL INHIBITORY CONCENTRATION MIC, pre-incubated in Mouse Serum): 0.25 µg/mL (≈ 0.343 µM)
MIC ([13]; GC6466, read-out: MINIMAL INHIBITORY CONCENTRATION MIC, pre-incubated in Water): 0.5 µg/mL (≈ 0.685 µM)
MIC ([14]; GC6469, read-out: MINIMAL INHIBITORY CONCENTRATION MIC, pre-incubated in Human Serum): 0.5 µg/mL (≈ 0.685 µM)
MIC ([14]; GC6469, read-out: MINIMAL INHIBITORY CONCENTRATION MIC, pre-incubated in Mouse Serum): 1 µg/mL (≈ 1.37 µM)
MIC ([14]; GC6469, read-out: MINIMAL INHIBITORY CONCENTRATION MIC, pre-incubated in Water): 1 µg/mL (≈ 1.37 µM)
MIC ([15]; GC2203, read-out: MINIMAL INHIBITORY CONCENTRATION MIC, pre-incubated in Human Serum): 4 µg/mL (≈ 5.48 µM)
MIC ([15]; GC2203, read-out: MINIMAL INHIBITORY CONCENTRATION MIC, pre-incubated in Mouse Serum): 0.5 µg/mL (≈ 0.685 µM)
MIC ([15]; GC2203, read-out: MINIMAL INHIBITORY CONCENTRATION MIC, pre-incubated in Water): 32 µg/mL (≈ 43.8 µM)
MIC ([16]; MRSA, read-out: Range of MIC, Staph (Mouse Serum)): 0.25 to 1 µg/mL (≈ 0.343 to 1.37 µM)
MIC ([16]; MRSA, read-out: Range of MIC, Staph (Water)): 0.5 to 2 µg/mL (≈ 0.685 to 2.74 µM)
MIC ([16]; read-out: Minimum inhibitory concentration (MIC), Staph (Human Serum)): 0.12 to 1 µg/mL (≈ 0.164 to 1.37 µM)
MIC ([16]; read-out: Minimum inhibitory concentration (MIC), Staph (Water)): 0.5 to 2 µg/mL (≈ 0.685 to 2.74 µM)
MIC ([17]; GC3226, read-out: MINIMAL INHIBITORY CONCENTRATION MIC, pre-incubated in Human Serum): 8 µg/mL (≈ 11 µM)
MIC ([17]; GC3226, read-out: MINIMAL INHIBITORY CONCENTRATION MIC, pre-incubated in Mouse Serum): 1 µg/mL (≈ 1.37 µM)
MIC ([17]; GC3226, read-out: MINIMAL INHIBITORY CONCENTRATION MIC, pre-incubated in Water): 64 µg/mL (≈ 87.7 µM)
MIC ([18]; GC2236, read-out: MINIMAL INHIBITORY CONCENTRATION MIC, pre-incubated in Human Serum): 4 µg/mL (≈ 5.48 µM)
MIC ([18]; GC2236, read-out: MINIMAL INHIBITORY CONCENTRATION MIC, pre-incubated in Mouse Serum): 1 µg/mL (≈ 1.37 µM)
MIC ([18]; GC2236, read-out: MINIMAL INHIBITORY CONCENTRATION MIC, pre-incubated in Water): 16 µg/mL (≈ 21.9 µM)
MIC ([19]; GC2270, read-out: MINIMAL INHIBITORY CONCENTRATION MIC, pre-incubated in Human Serum): 4 µg/mL (≈ 5.48 µM)
MIC ([19]; GC2270, read-out: MINIMAL INHIBITORY CONCENTRATION MIC, pre-incubated in Mouse Serum): 0.5 µg/mL (≈ 0.685 µM)
MIC ([19]; GC2270, read-out: MINIMAL INHIBITORY CONCENTRATION MIC, pre-incubated in Water): 32 µg/mL (≈ 43.8 µM)
MIC ([20]; GC2216, read-out: MINIMAL INHIBITORY CONCENTRATION MIC, pre-incubated in Human Serum): 0.5 µg/mL (≈ 0.685 µM)
MIC ([20]; GC2216, read-out: MINIMAL INHIBITORY CONCENTRATION MIC, pre-incubated in Mouse Serum): 1 µg/mL (≈ 1.37 µM)
MIC ([20]; GC2216, read-out: MINIMAL INHIBITORY CONCENTRATION MIC, pre-incubated in Water): 1 µg/mL (≈ 1.37 µM)
SMILES: CC(C)C(=O)OCOC(=O)N(CC(=O)Nc1cc(N(C)C)c2c(c1O)C(=O)C1=C(O)[C@]3(O)C(=O)C(C(N)=O)=C(O)[C@@H](N(C)C)[C@@H]3C[C@@H]1C2)C(C)(C)C [Example 45, ({[(2-{[(5aR,6aS,7S,10aS)-9-(aminocarbonyl)-4,7-bis(dimethylamino)-1,8,10a,11-tetrahydroxy-10,12-dioxo-5,5a,6,6a,7,10,10a,12-octahydrotetracen-2-yl]amino}-2-oxoethyl)(tert-butyl)amino]carbonyl}oxy)methyl 2-methylpropanoate]
